One assay deals with T1, TPα^S329A (Homo sapiens, UniProt P21731, S329A).
T1 construct: expressed in transfected cells
T1 sequence (P21731 1-343 S329A): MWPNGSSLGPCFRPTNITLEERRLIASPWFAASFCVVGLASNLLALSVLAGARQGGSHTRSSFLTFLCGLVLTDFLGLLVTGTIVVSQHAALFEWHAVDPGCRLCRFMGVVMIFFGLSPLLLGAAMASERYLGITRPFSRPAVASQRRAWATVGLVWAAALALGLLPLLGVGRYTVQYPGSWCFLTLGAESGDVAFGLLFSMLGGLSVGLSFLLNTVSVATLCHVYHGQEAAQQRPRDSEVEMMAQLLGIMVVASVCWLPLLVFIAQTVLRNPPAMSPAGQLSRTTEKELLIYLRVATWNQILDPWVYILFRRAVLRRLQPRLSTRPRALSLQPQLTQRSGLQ
As to the kind of experiment: [3H]SQ29,548 radioligand binding, Scatchard analysis, HEK.TPα^S329A. The procedure:
(§1) Cells were harvested by centrifugation at 500×g at 4 °C for 5 min and washed three times with ice-cold Ca^2+/Mg^2+-free phosphate-buffered saline (PBS). TP radioligand binding assays were carried out at 30 °C for 30 min in 100 μl reactions in the presence of 0–40 nM [^3H] […] Protein determinations were carried out using the Bradford assay.
(§2) Radioligand binding and Scatchard analysis data were analysed using GraphPad Prisim V4.0 programme (GraphPad Software Inc., San Diego CA, USA). Statistical analyses were carried out using the unpaired Student's t test using the Statworks Analysis Package. p-values ≤ 0.01 indicated statistically significant differences.

The target of a further assay is T2, TPα^S331,T337A (Homo sapiens, UniProt P21731, S331A/T337A).
T2 construct: expressed in transfected cells
T2 sequence (P21731 1-343 S331A/T337A): T1 sequence (P21731 1-343 S329A) with A329S, S331A, T337A
As to the kind of experiment: [3H]SQ29,548 radioligand binding, Scatchard analysis, HEK.TPα^S331,T337A. How it is done: as §1, §2

Another assay has as its target T3, TPα^T337,S340A (Homo sapiens, UniProt P21731, S340A/T337A).
T3 construct: expressed in transfected cells
T3 sequence (P21731 1-343 T337A/S340A): T1 sequence (P21731 1-343 S329A) with A329S, T337A, S340A
Description: [3H]SQ29,548 radioligand binding, Scatchard analysis, HEK.TPα^T337,S340A. How it is done:
as §1, §2

Consider one compound from article PMC2680961, “Homologous desensitization of signalling by the alpha (α) isoform of the human thromboxane A2 receptor: A specific role for nitric oxide signalling” (Biochimica et Biophysica Acta, 2007).

Molecules are shown by their SMILES. Positions count from the first letter of the chain named.

For `O=C(O)CCC/C=C\C[C@@H]1[C@H](CNNC(=O)Nc2ccccc2)[C@H]2CC[C@@H]1O2` [SQ29,548], the figures for the “Bmax (pmol/mg protein ± S.E.M.)” value at TPα^S329A, on TPα^S331,T337A and on TPα^T337,S340A were 4.43 ± 0.04 pmol/mg protein, 3.23 ± 0.03 pmol/mg protein and 4.9 ± 0.04 pmol/mg protein, respectively.
